Patent US10835456B2, “Propyl gallate-containing vitamin preparations” (BASF SE, priority 2016, dated 2020)
Where “and” joins values, the source holds several entries; their conditions need not be identical. Equal values may be shown once. Blank lines part the entries; values can stand above or below the compound they belong to.

What was measured:
Type in all cases: physicochemical
[1] = Particle size after dissolution in water by photon correlation spectroscopy (Malvern Zetasizer Nano ZSP); conditions: PCS; for particle size / polydispersity index PDI: dry powder with propyl gallate added to the dispersion (Examples 1, 3b, 3c, 3d)
Description: The particle size is determined by means of a Malvern Zetasizer Nano ZSP.
30 g of citranaxanthin were suspended in 240 g of isopropanol together with 1.1 g of ascorbyl palmitate and, with setting of the pressure-limiting valve to 30 bar, mixed continuously with 390 g of isopropanol in a mixing chamber A. At a metering rate of 6 L/h on the suspension side and of 9 L/h on the solvent side, a mixing temperature of 170° C. was established in the mixing chamber A. After a residence time of 0.3 second, the molecularly disperse solution was mixed in mixing chamber B with a solution of 32 g of gelatin, 71.4 g of sucrose and 50 g of glucose syrup in 4000 g of water at a throughput rate of 100 L/h. After the solvent had been removed under reduced pressure in a distillation apparatus, an active ingredient dispersion was obtained, to which 8 g of sunflower oil and 8 g of propyl gallate were added. The propyl gallate was predissolved here in 200 mL of water and adjusted to pH 7 with NaOH. Subsequently, the dispersion was converted to a stable, water-soluble dry powder by spray drying. After dissolution in water, by photon correlation spectroscopy (PCS), a particle size of 386 nm (standard deviation 142.5, polydispersity index PDI 0.185, D(95): 660 nm) was measured (Malvern Zetasizer Nano ZSP).

[2] = Stress test: stability in premix mixture, stored at 40° C. and 70% humidity for 4 weeks, retention of vitamin content; conditions: for Retention Active ingredient content after 4-week premix test: Table 3b
Description: The stress test for the vitamins is configured such that specimens of 100 mg in each case of the formulation produced and 4 g of premix mixture are weighed into glass vessels. The premix mixture consists of 50% by weight of fine lime (particle size <1000 μm), 20% by weight of wheat bran (particle size <1000 μm), 20% by weight of 50% silica-supported choline chloride (particle size <1000 μm) and 10% by weight of trace element mixture (particle size 100-500 μm). The trace element mixture is composed of 46.78% by weight of FeSO4x7H2O (100-500 μm), 37.43% by weight of CuSO4x5H2O (100-500 μm), 11.79% by weight of ZnO (<500 μm), 3.61% by weight of MnO and 0.39% by weight of CoCO3. After addition of all ingredients, the specimens are mixed cautiously, with performance of the mixing mechanically or else by hand, and these specimens (A) are stored in a climate-controlled chamber at 40° C. and 70% humidity for 4 weeks. […]
For this purpose, specimens each of 100 mg of the formulation produced and 4 g of premix mixture are weighed out in glass vessels (50 mL glass vials). The premix mixture consists of 50% by weight of fine lime (particle size <1000 μm), 20% by weight of wheat bran (particle size <1000 μm), 20% by weight of 50% silica-supported choline chloride (particle size <1000 μm) and 10% by weight of trace element mixture (particle size 100-500 μm), said trace element mixture consisting of 46.78% by weight of FeSO4x7H2O (100-500 μm), 37.43% by weight of CuSO4x5H2O (100-500 μm), 11.79% by weight of ZnO (<500 μm), 3.61% by weight of MnO and 0.39% by weight of CoCO3. After addition of all ingredients, the specimens are mixed cautiously, where the mixing can be performed mechanically or else by hand, and these specimens (A) are stored in a climate-controlled chamber at 40° C. and 70% humidity for 4 weeks. An identical test is conducted with a comparative sample (B) which is of identical composition but which comprises, rather than propyl gallate, the same amount of ethoxyquin. […] The ratio of the contents after (A2), (B2) and before the storage (A1) and (B1) are used here to calculate the retention (A2/A1) or (B2/B1) of the samples. For the formulations of the invention, a quotient (A2/A1):(B2/B1) of at least 0.75 is determined here. Preferably, for the formulations of the invention, a quotient of at least 1 is obtained.
The stability of the particles thus produced was tested in a stress test. For this purpose, specimens each of 100 mg of the particles produced and 4 g of premix mixture were weighed into 50 mL glass bottles. The premix mixture consisted of 50% by weight of fine lime (particle size <1000 μm), 20% by weight of wheat bran (particle size <1000 μm), 20% by weight of 50% silica-supported choline chloride (particle size <1000 μm) and 10% by weight of trace element mixture (particle size 100-500 μm), and the trace element mixture of 46.78% by weight of FeSO4x7H2O (100-500 μm), 37.43% by weight of CuSO4x5H2O (100-500 μm), 11.79% by weight of ZnO (<500 μm), 3.61% by weight of MnO and 0.39% by weight of CoCO3. After addition of all ingredients, the specimens were carefully mixed by hand. These specimens were stored in a climate-controlled chamber at 40° C. and 70% air humidity for 4 weeks. […]

[3] = Particle size after dissolution in water by photon correlation spectroscopy (Malvern Zetasizer Nano ZSP); conditions: PCS
[4] = Table 4b, D,L-α tocopherol 4% by wt. (in active ingredient phase) + propyl gallate 4% by wt. (in protective colloid phase)
[5] = Table 4b, mixed tocopherol 4% by wt. (in active ingredient phase) + propyl gallate 4% by wt. (in protective colloid phase)
[6] = dry powder with 4% by weight of propyl gallate and 4% by weight of butylhydroxytoluene
[7] = dry powder with 4% by weight of propyl gallate and 4% by weight of mixed tocopherol

D(95) ([1]; dry powder with propyl gallate added to the dispersion (Examples 1, 3b)): 594 nm
particle size [1]: 290 nm
polydispersity index PDI [1]: 0.193
Retention Active ingredient content after 4-week premix test ([2]; propyl gallate 4%, dispersion): 61.2%
Retention Active ingredient content after 4-week premix test ([2]; propyl gallate 6%, dispersion): 77.9%
Retention Active ingredient content after 4-week premix test ([2]; propyl gallate 8%, dispersion): 83.3%
Retention Active ingredient content after 4-week premix test ([2]; propyl gallate 9%, dispersion): 82.4%
Retention Active ingredient content after 4-week premix test ([2]; propyl gallate 10%, dispersion): 69.8%
Retention Active ingredient content after 4-week premix test ([2]; propyl gallate 12%, dispersion): 47.2%
Retention Active ingredient content after 4-week test ([2]; Table 4a, D,L-α tocopherol 4% by wt., active ingredient phase): 45.7%
Retention Active ingredient content after 4-week test ([2]; Table 4a, mixed tocopherol 4% by wt., active ingredient phase): 48.7%
Retention Active ingredient content after 4-week test [2, 4]: 57.2%
Retention Active ingredient content after 4-week test [2, 5]: 78.1%
Retention Canthaxanthin after 4-week test ([2]; Table 5a, propyl gallate 0% by wt., mixed tocopherol 4% by wt.): 48.7%
Retention Canthaxanthin after 4-week test ([2]; Table 5a, propyl gallate 4% by wt., mixed tocopherol 0% by wt.): 61.2%
Retention Canthaxanthin after 4-week test ([2]; Table 5a, propyl gallate 4% by wt., mixed tocopherol 2% by wt.): 80.8%
Retention Canthaxanthin after 4-week test ([2]; Table 5a, propyl gallate 4% by wt., mixed tocopherol 4% by wt.): 80.3%
Retention Canthaxanthin after 4-week test ([2]; Table 5a, propyl gallate 6% by wt., mixed tocopherol 0% by wt.): 71.3%
Retention Canthaxanthin after 4-week test ([2]; Table 5a, propyl gallate 8% by wt., mixed tocopherol 0% by wt.): 83.3%
Retention Canthaxanthin after 4-week test ([2]; Table 5b, propyl gallate 4% by wt. (in protective colloid phase pH 7), mixed tocopherol 1% by wt. (in active ingredient phase)): 72.8%
Retention Canthaxanthin after 4-week test ([2]; Table 5b, propyl gallate 4% by wt. (in protective colloid phase pH 7), mixed tocopherol 2% by wt. (in active ingredient phase)): 76%
Retention Canthaxanthin after 4-week test ([2]; Table 5b, propyl gallate 4% by wt. (in protective colloid phase pH 7), mixed tocopherol 4% by wt. (in active ingredient phase)): 80.6%
SMILES: CC1=C(/C=C/C(C)=C/C=C/C(C)=C/C=C/C=C(C)/C=C/C=C(C)/C=C/C2=C(C)C(=O)CCC2(C)C)C(C)(C)CCC1=O [Canthaxanthin]

particle size [3, 6]: 290 nm
polydispersity index PDI [3, 6]: 0.180
particle size [3, 7]: 280 nm
polydispersity index PDI [3, 7]: 0.185
Retention Active ingredient content after 4-week test ([2]; Table 3a, propyl gallate 0% by wt., dispersion): 7.9%
Retention Active ingredient content after 4-week test ([2]; Table 3a, propyl gallate 2% by wt., dispersion): 20.2%
Retention Active ingredient content after 4-week test ([2]; Table 3a, propyl gallate 3% by wt., dispersion): 26.7%
Retention Active ingredient content after 4-week test ([2]; Table 3a, propyl gallate 4% by wt., dispersion): 47.8%
Retention Active ingredient content after 4-week test ([2]; Table 3a, propyl gallate 5% by wt., dispersion): 45.7%
Retention Active ingredient content after 4-week test ([2]; Table 3a, propyl gallate 6% by wt., dispersion): 45.9%
Retention Active ingredient content after 4-week test ([2]; Table 3a, propyl gallate 7% by wt., dispersion): 49.5%
Retention Active ingredient content after 4-week test ([2]; Table 3a, propyl gallate 8% by wt., dispersion): 55.9%
Retention Active ingredient content after 4-week test ([2]; Table 3a, propyl gallate 8.5% by wt., dispersion): 51.9%
Retention Active ingredient content after 4-week test ([2]; Table 3a, propyl gallate 9% by wt., dispersion): 57.4%
Retention Active ingredient content after 4-week test ([2]; Table 3a, propyl gallate 10% by wt., dispersion): 19.6%
Retention Active ingredient content after 4-week test [2, 4]: 21.3%
Retention Active ingredient content after 4-week test [2, 5]: 67.5%
Retention Canthaxanthin after 4-week test ([2]; Table 5c, propyl gallate 0% by wt., mixed tocopherol 4% by wt.): 10.8%
Retention Canthaxanthin after 4-week test ([2]; Table 5c, propyl gallate 4% by wt., mixed tocopherol 0% by wt.): 39.1%
Retention Canthaxanthin after 4-week test ([2]; Table 5c, propyl gallate 4% by wt., mixed tocopherol 4% by wt.): 66.5%
Retention Canthaxanthin after 4-week test ([2]; Table 5d, 4% by wt. of ethoxyquin): 79.3%
Retention Canthaxanthin after 4-week test ([2]; Table 5d, propyl gallate 0% by wt., BHT 4% by wt.): 56.1% and 65.5% and 67.9%
Retention Canthaxanthin after 4-week test ([2]; Table 5d, propyl gallate 4% by wt., BHT 0% by wt.): 61.2%
Retention Canthaxanthin after 4-week test ([2]; Table 5d, propyl gallate 4% by wt., BHT 4% by wt.): 82.3%
Retention Active ingredient content after 4-week test ([2]; propyl gallate 4% by wt. added to dispersion in solid form without pre-dissolution): 47.2% and 44.9%
Retention Active ingredient content after 4-week test ([2]; propyl gallate 4% by wt. added to dispersion, dissolved in water pH 7): 46% and 49.4% and 47.8%
Retention (active constituent after 4 weeks in the test) ([2]; propyl gallate 4% by wt. added to dispersion, pH of sprayed dispersion 4.5): 42.2%
Retention (active constituent after 4 weeks in the test) ([2]; propyl gallate 4% by wt. added to dispersion, pH of sprayed dispersion 6): 39.1%
Retention (active constituent after 4 weeks in the test) ([2]; propyl gallate 4% by wt. added to dispersion, pH of sprayed dispersion 7): 47.8%
Retention (active constituent after 4 weeks in the test) ([2]; propyl gallate 4% by wt. added to dispersion, pH of sprayed dispersion 8): 49.4%
Retention (active constituent after 4 weeks in the test) ([2]; propyl gallate 4% by wt. added to dispersion, pH of sprayed dispersion 9): 28.2%
Retention (active constituent after 4 weeks in the test) ([2]; propyl gallate 4% by wt. added to dispersion, pH of sprayed dispersion 10): 36.4%
Retention (active constituent after 4 weeks in the test) ([2]; propyl gallate 4% by wt. added to dispersion, pH of sprayed dispersion 11): 14.7%
Retention Active ingredient content after 4-week test ([2]; propyl gallate 4% by wt. in colloid phase, pH of the colloid phase 8.5-9.5): 13.4%
Retention Active ingredient content after 4-week test ([2]; propyl gallate 4% by wt. in colloid phase, pH preadjustment to 7, then adjustment to pH 8.5 at maximum): 44.1%
SMILES: CC(=O)/C=C/C(C)=C/C=C/C(C)=C/C=C/C=C(C)/C=C/C=C(C)/C=C/C1=C(C)CCCC1(C)C [Citranaxanthin]

particle size [1]: 262 nm
polydispersity index PDI [1]: 0.268
Retention Active ingredient content after 4-week test ([2]; Table 3d, ethoxyquin 4% by wt., dispersion): 22.2%
Retention Active ingredient content after 4-week test ([2]; Table 3d, propyl gallate 4% by wt., dispersion): 30.3%
SMILES: CC1=C(/C=C/C(C)=C/C=C/C(C)=C/C=C/C=C(C)/C=C/C=C(C)/C=C/C2=C(C)CCCC2(C)C)C(C)(C)CCC1 [β-carotene]
